# Assay results from PubChem BioAssay (NCI).
#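 At the GI50, growth is halved. TGI: total growth inhibition.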
# What was measured:
# Test in all cases: NCI anticancer screen, dose series, 384-well format
# [1] = system: NCI-H322M lung
# [2] = system: K-562 leukemia
# [3] = system: OVCAR-8 ovarian
# [4] = system: HOP-62 NSCLC
# [5] = system: LOX IMVI melanoma
# [6] = system: MDA-MB-468 breast
# [7] = system: HCT-15 colon
# [8] = system: PC-3 prostate
# [9] = system: ACHN renal
# [10] = system: SK-MEL-5 melanoma
# [11] = system: RXF 393 renal
# [12] = system: MDA-MB-231 breast
# [13] = system: SW-620 colon
smiles,measurement,setting,value
Cn1cc(-c2ccc3c(c2)CCN3C(=O)Cc2cccc(C(F)(F)F)c2)c2c(N)ncnc21,GI50,[1],5.96 µM
same,TGI,[1],27.7 µM
same,GI50,[2],2.55 µM
same,TGI,[2],11.4 µM
same,GI50,[3],5.73 µM
same,TGI,[3],54.7 µM
same,GI50,[4],10.8 µM
same,TGI,[4],30.3 µM
same,GI50,[5],5.67 µM
same,TGI,[5],18.2 µM
same,GI50,[6],2.86 µM
same,TGI,[6],10.7 µM
same,GI50,[7],2.69 µM
same,TGI,[7],17.6 µM
same,GI50,[8],9.2 µM
same,TGI,[8],22.6 µM
same,GI50,[9],2.25 µM
same,TGI,[9],19.8 µM
same,GI50,[10],3.86 µM
same,TGI,[10],9.56 µM
same,GI50,[11],1.82 µM
same,TGI,[11],8.86 µM
same,GI50,[12],4.91 µM
same,TGI,[12],15.6 µM
same,GI50,[13],10.6 µM
same,TGI,[13],22.9 µM
